# Test results as given in patent US20230147455A1, “COMPOUNDS FOR THE PROPHYLAXIS AND/OR TREATMENT OF ACUTE RESPIRATORY DISTRESS SYNDROME” (SERVICIO ANDALUZ DE SALUD, priority 2020, published 2023).
# Where two headings read alike, the source gives them in different places.
# Key:
# renin and Ang II = conditions: rat lung tissues treated with lipopolysaccharide; cited from earlier work
# [1] = phase III study conducted in 2000; cited from earlier work
# [2] = patients with ALI and ARDS; cited from earlier work
# [3] = in vivo; cited from earlier work
# SARS-CoV-2 = assay: Pilot randomized clinical trial: ICU admission of hospitalized patients with or without calcifediol; type: in vivo; conditions: calcifediol YES group, 42 patients
# Experimental: Preliminary study performed from 10 Mar. 2020 on 72 patients admitted in pneumology department at Hospital Universitario Reina Sofia in Cordoba, according to hospital protocol.
# Administration of vitamin D (calcifediol):
# The difference is statistically significant: Chi-squared with Yates' correction p=0.0001.
# As shown in the results, progression of the disease requiring admission to the ICU occurred in only 1 of all the patients who were treated with calcifediol.
# COVID-19 = assay: Retrospective multicenter cohort study of patients hospitalized with COVID-19, intrahospital mortality; type: in vivo, human
# [4] = 14 clinical trials with 1303 patients; cited from earlier work
# [5] = cited from earlier work
compound,measurement,setting,value
"C=C1/C(=C\C=C2/CCC[C@]3(C)[C@@H]([C@H](C)CCCC(C)(C)O)CC[C@@H]23)C[C@@H](O)C[C@@H]1O [Calcitriol, 1-alpha,25-dihydroxycholecalciferol]",expression of renin and Ang II,renin and Ang II,suppresses the expression of renin and Ang II
CC(=O)N1CCN(c2ccc(OCC3COC(Cn4ccnc4)(c4ccc(Cl)cc4Cl)O3)cc2)CC1 (centres unmarked) [Ketoconazole],mortality and secondary outcome measures,[1],did not show any improvement in mortality or in secondary outcome measures
CC(=O)N[C@@H](CS)C(=O)O [N-acetylcysteine],mortality benefit,[2],have not shown any mortality benefits
"C[C@H](/C=C/[C@H](C)C(C)(C)O)[C@H]1CC[C@H]2/C(=C/C=C3C[C@@H](O)C[C@H](O)C3)CCC[C@]12C [Paricalcitol, 19-nor-1,25-(OH)2-vitamin D2]",effect on LPS-induced acute lung injury,[3],improved the LPS-induced acute lung injury or SARS by maintaining the alveolar barrier function
"C=C1CC[C@H](O)C/C1=C/C=C1\CCC[C@]2(C)[C@@H]([C@H](C)CCCC(C)(C)O)CC[C@@H]12 [calcifediol, 25-hydroxycholecalciferol]",ICU NO (number of patients not admitted to the ICU),SARS-CoV-2,41
same,ICU YES (number of patients admitted to the ICU),"SARS-CoV-2; vs 13 of 30 without calcifediol, Chi-squared with Yates' correction p=0.0001",1
same,mortality rate,"COVID-19; 79 hospitalized COVID-19 patients who received calcifediol, vs 20.7% without, p <0.001",5.1%
same,HR for mortality,"COVID-19; fitted Cox proportional hazards models, calcifediol vs no calcifediol",0.17 (95% CI: 0.05 to 0.51)
same,death OR,COVID-19; patients who received calcifediol compared with patients who did not,"0.20 (95% CI, 0.07 to 0.57)"
same,reduction of ICU admissions and death by process,"COVID-19; patients with COVID-19, general statement at head of Example 2",at least 25%
nitric oxide [inhaled NO],"oxygenation, survival, days off a ventilator",[4],only a temporary improvement in oxygenation without the benefit of survival or an increase in days off a ventilator
vitamin D,mortality at 28 days,"[5]; by intramuscular or intravenous injection, vs placebo 40.8%",25.6%
same,"OR, mortality at 28 days","[5]; grouped analysis of the 9 RCTs, 95% CI 0.46-1.15",0.73
same,mortality at 28 days,"[5]; grouped analysis of the 9 RCTs, vs placebo 21.7%",20.4%
same,"OR, mortality at 28 days","[5]; high daily dose, CI 95% 0.51-1.36",0.83
same,mortality at 28 days,"[5]; high daily dose, vs placebo 19.8%",20.9%
same,"OR, mortality at 28 days","[5]; low daily dose, 95% CI 0.32-1.68",0.74
same,mortality at 28 days,"[5]; low daily dose, vs placebo 21.3%",15.6%
same,"OR, mortality at 28 days","[5]; only enterally, 95% CI 0.88-1.57",1.19
same,mortality at 28 days,"[5]; only enterally, vs placebo 18.2%",19.9%
same,"duration of the stay in the ICU, standard mean difference [SMD]","[5]; vitamin D vs placebo, 95% CI −0.61 to 0.01",−0.30
same,"duration of hospital stay, SMD",[5]; vitamin D vs placebo,−0.17
same,"duration of mechanical ventilation, SMD",[5]; vitamin D vs placebo,−0.41
